According to PMC11145891, “Effect of 2-hydroxyethylammonium carboxylate protic ionic liquids on the solubility and cytotoxicity of indomethacin” (BMC Chemistry, 2024):
Read-outs that look alike come from different tables or passages of the source.

What was measured:
HT29 cell line [1] = assay: MTT assay cytotoxicity of PILs; conditions: for IC50: MTT, 24 h exposure
Procedure: (§1) Pastor Institute of Iran generously provided the human colon adenocarcinoma cell line HT29. The cell lines were cultured in RPMI’s medium supplemented with 10% fetal bovine serum (FBS) and Culture medium containing FBS. The cell cultures were incubated at 37 °C in a humidified environment of 5% carbon dioxide—CO2.
(§2) The colorimetric MTT assay was used to assess the cytotoxic activity of PILs (Twentyman and Luscombe 1987). HT29 cells were seeded in 96-well plates and allowed to conform for the first step. The cells were then incubated for 24 h at 37 °C in 5% CO2 in a total of six concentrations (3–150 µg mL^−1) of the studied compounds diluted in RPMI medium (previously sterilized with a 0.22 m syringe filter). After 24 h of exposure, each well was filled with 50 µL of MTT solution (3 (4,5-dimethylthiazol-2-yl)-2,5-diphenyltetrazolium bromide (MTT) from Sigma-Aldrich) (2 mg. mL in PBS, pH 7.2). To dissolve the formazan crystals, the medium was substituted with 150 µL of dimethyl sulfoxide (DMSO) after 4 h of incubation.
(§3) The plate was shaking for around 1 h while being held out of direct sunlight. Cell viability was measured through the optical density of reduced MTT at 570–630 nm using a microplate reader (Synergy HT from BioTeK Instruments Inc., Winooski, VT, USA). The percentage of viable cells was calculated as the ratio between the absorbance of treated and control cells. Similarly, IC50 was estimated using a non-linear regression, logistic equation to determine the chemical concentration that causes a 50% reduction in cell viability [27].

[2] = format: physicochemical
Procedure: Before obtaining dissolution data, a calibration curve for Indomethacin (IMC) was established (Fig. 2). A double-beam T80 UV-vis spectrometer (Japan) and a mixture of ethanol and distilled deionized water were employed to dissolve a specific amount of IMC to generate the calibration curve. Numerous methods were utilized to determine the experimental solubility data, encompassing the shake-flask method. […] Then, the excess amounts of IMC were added to glass vials holding a particular quantity of water and PILs, which were stirred and kept for 3 days in a water bath thermostat until equilibrium was reached. The temperature was adjusted with a precision of 0.01 K using an ED water bath thermostat (Julabo Co., Germany). After 3 days, the liquid and solid phases were separated employing a Hettich D-7200 centrifuge. At the next step, the liquid phase was appropriately diluted with an ethanol + water solution after filtering the saturated solutions through a 0.22 μm PTFE filter. The concentration of IMC in the solutions was measured by utilizing the calibration curve and a T80 UV-vis spectrometer (Japan). The mole fraction of IMC (x1) in the aqueous solutions containing PILs was determined, for the IMC + water, IMC + water combination, and IMC + PILs systems using the Eq. 1 [25, 26]:1 x1=[…]3, where Wi and Mi, respectively, indicate the weight fractions and molar mass weight fractions of each system component (i).

[3] = Apparent thermodynamic functions of IMC dissolution (van't Hoff and Gibbs equations); format: physicochemical
Source text: The van’t Hoff and Gibbs equations were employed for calculating the Thm = 305.55 K (the mean harmonic temperature), which was derived by considering into calculate temperatures (298.15 to 313.15 K). The thermodynamic parameters of dissolution have been evaluated by employing the apparent thermodynamic functions. […] On the other hand, the van’t Hoff plot, which is a plot of lnx1 versus 1/T-1/Thm , can be utilized to figure out:14 ΔHsoln∘=-R∂lnx1/∂1/T-1/ThmP, 15 ΔGsoln∘=-RThm×intercept.
In this manner, the values of ΔHsoln∘ and ΔGsoln∘ have been evaluated utilizing the slope and intercept of Eqs. 14 and 15. Furthermore, the following equation [47, 48] was applied to evaluate the standard molar entropy of dissolution, ΔSsoln∘ [49]:16 ΔSsoln∘=ΔHsoln∘-ΔGsoln∘/Thm.
Finally, in the IMC dissolution process, Eqs.

[4] = XRD of residual solids from solubility measurement; format: physicochemical; conditions: residual solids from saturated aqueous PIL solutions vs raw IMC
Source text: The XRD diffractograms of raw IMC crystals together with residuals crystals sampled from solubility measurement are depicted in Figure S4. (supporting information). It should be noted that quantitative analysis of phases in samples with preferential orientation or texture is not possible using traditional methods such as direct comparison. […] First, the stability of IMC in the presence of PILs was investigated. The analysis of the bottom phase(s) after the solubility experiments have been presented. There are different type of factors affecting the peak intensity of XRD. These type of factors are listed as: • The nature of the sample under test (single-phase or multiphase of the sample). • Powder samples have less peak intensity than bulk samples. (Due to the effect of absorption factor). • Grain size: the larger the grain size, the higher the peak intensity. For example, considering samples with the same chemical composition, which have been annealed at different times of heat treatment, a sample will have a higher peak intensity with a longer heat treatment time (longer annealing time = larger grain size). It should be noted that the smaller the grain size, the higher the […] is the amorphous part of the material, and as a result the background scatter in the diffraction pattern will increase and the peak intensity would decrease.

[5] = cited from earlier work
HT29 cell line [6] = tested on: HT29 cell line
Procedure: as §1, §2, §3

[7] = aq. MEAA, w3 = 0.0000, Thm = 305.55 K
[8] = aq. MEAA, w3 = 0.0200, Thm = 305.55 K
[9] = aq. MEAA, w3 = 0.0500, Thm = 305.55 K
[10] = aq. MEAA, w3 = 0.0700, Thm = 305.55 K
[11] = aq. MEAA, w3 = 0.1000, Thm = 305.55 K
[12] = aq. MEAA, w3 = 0.1500, Thm = 305.55 K
[13] = aq. MEAA, w3 = 0.2000, Thm = 305.55 K
[14] = aq. MEAL, w3 = 0.0000, Thm = 305.55 K
[15] = aq. MEAL, w3 = 0.0200, Thm = 305.55 K
[16] = aq. MEAL, w3 = 0.0500, Thm = 305.55 K
[17] = aq. MEAL, w3 = 0.0700, Thm = 305.55 K
[18] = aq. MEAL, w3 = 0.1000, Thm = 305.55 K
[19] = aq. MEAL, w3 = 0.1500, Thm = 305.55 K
[20] = aq. MEAL, w3 = 0.2000, Thm = 305.55 K
[21] = aq. MEAP, w3 = 0.0000, Thm = 305.55 K
[22] = aq. MEAP, w3 = 0.0200, Thm = 305.55 K
[23] = aq. MEAP, w3 = 0.0500, Thm = 305.55 K
[24] = aq. MEAP, w3 = 0.0700, Thm = 305.55 K
[25] = aq. MEAP, w3 = 0.1000, Thm = 305.55 K
[26] = aq. MEAP, w3 = 0.1500, Thm = 305.55 K
[27] = aq. MEAP, w3 = 0.2000, Thm = 305.55 K

## CCC(=O)O.NCCO [MEAP, 2-Hydroxyethylammonium propionate]
HT29 cell line [1]
  cytotoxic effect category: moderate
  IC50: 67.19 ± 0.049 µg/mL

## COc1ccc2c(c1)c(CC(=O)O)c(C)n2C(=O)c1ccc(Cl)cc1 [Indomethacin]
[2]
  IMC solubility in MEAL PIL relative to water: more than 200 times
  increase of IMC solubility in PILs compared to pure water: ~200 times
  solubility (mole fraction): 20.71 × 10^−5 mole fraction
[3]; [7]
  ΔGsoln∘: 34.58 kJ/mol
  ΔHsoln∘: 25.32 kJ/mol
  ξH: 73.23%
  ξTS: 26.77%
[3]; [8]
  ΔGsoln∘: 28.47 kJ/mol
  ΔHsoln∘: 18.18 kJ/mol
  ξH: 63.86%
  ξTS: 36.14%
[3]; [9]
  ΔGsoln∘: 27.91 kJ/mol
  ΔHsoln∘: 15.32 kJ/mol
  ξH: 54.90%
  ξTS: 45.10%
[3]; [10]
  ΔGsoln∘: 27.63 kJ/mol
  ΔHsoln∘: 8.90 kJ/mol
  ξH: 32.21%
  ξTS: 67.79%
[3]; [11]
  ΔGsoln∘: 27.45 kJ/mol
  ΔHsoln∘: 10.67 kJ/mol
  ξH: 38.86%
  ξTS: 61.14%
[3]; [12]
  ΔGsoln∘: 26.87 kJ/mol
  ΔHsoln∘: 19.13 kJ/mol
  ξH: 71.17%
  ξTS: 28.83%
[3]; [13]
  ΔGsoln∘: 26.17 kJ/mol
  ΔHsoln∘: 10.61 kJ/mol
  ξH: 40.54%
  ξTS: 59.46%
[3]; [14]
  ΔGsoln∘: 34.58 kJ/mol
  ΔHsoln∘: 25.32 kJ/mol
  ξH: 73.23%
  ξTS: 26.77%
[3]; [15]
  ΔGsoln∘: 25.22 kJ/mol
  ΔHsoln∘: 22.10 kJ/mol
  ξH: 87.61%
  ξTS: 12.39%
[3]; [16]
  TMΔSsoln∘: 2.50 kJ/mol
  ΔGsoln∘: 24.04 kJ/mol
  ΔHsoln∘: 26.54 kJ/mol
  ξH: 91.39%
  ξTS: 8.61%
[3]; [17]
  TMΔSsoln∘: 10.28 kJ/mol
  ΔGsoln∘: 23.57 kJ/mol
  ΔHsoln∘: 33.85 kJ/mol
  ξH: 76.70%
  ξTS: 23.30%
[3]; [18]
  TMΔSsoln∘: 3.81 kJ/mol
  ΔGsoln∘: 22.89 kJ/mol
  ΔHsoln∘: 26.70 kJ/mol
  ξH: 87.50%
  ξTS: 12.50%
[3]; [19]
  TMΔSsoln∘: 8.36 kJ/mol
  ΔGsoln∘: 21.79 kJ/mol
  ΔHsoln∘: 30.15 kJ/mol
  ξH: 78.28%
  ξTS: 21.72%
[3]; [20]
  TMΔSsoln∘: 2.57 kJ/mol
  ΔGsoln∘: 21.07 kJ/mol
  ΔHsoln∘: 23.65 kJ/mol
  ξH: 90.18%
  ξTS: 9.82%
[3]; [21]
  ΔGsoln∘: 34.58 kJ/mol
  ΔHsoln∘: 25.32 kJ/mol
  ξH: 73.23%
  ξTS: 26.77%
[3]; [22]
  TMΔSsoln∘: 3.14 kJ/mol
  ΔGsoln∘: 29.14 kJ/mol
  ΔHsoln∘: 32.28 kJ/mol
  ξH: 91.14%
  ξTS: 8.86%
[3]; [23]
  TMΔSsoln∘: 7.99 kJ/mol
  ΔGsoln∘: 28.20 kJ/mol
  ΔHsoln∘: 36.19 kJ/mol
  ξH: 81.92%
  ξTS: 18.08%
[3]; [24]
  TMΔSsoln∘: 31.30 kJ/mol
  ΔGsoln∘: 27.68 kJ/mol
  ΔHsoln∘: 58.98 kJ/mol
  ξH: 65.33%
  ξTS: 34.67%
[3]; [25]
  TMΔSsoln∘: 49.74 kJ/mol
  ΔGsoln∘: 27.01 kJ/mol
  ΔHsoln∘: 76.75 kJ/mol
  ξH: 60.68%
  ξTS: 39.32%
[3]; [26]
  TMΔSsoln∘: 58.61 kJ/mol
  ΔGsoln∘: 25.38 kJ/mol
  ΔHsoln∘: 83.99 kJ/mol
  ξH: 58.90%
  ξTS: 41.10%
[3]; [27]
  TMΔSsoln∘: 38.42 kJ/mol
  ΔGsoln∘: 24.21 kJ/mol
  ΔHsoln∘: 62.63 kJ/mol
  ξH: 61.98%
  ξTS: 38.02%
[4]
  solid phase stability in solubility measurements (XRD): no phase transformation
[5]; ethanol/water (wETOH = 0.2), 298.15 K, ref Peña et al.
  solubility (mole fraction): 1.13 × 10^−5 mole fraction
[5]; propylene glycol/water, 0.4 weight fraction propylene glycol, 303.15 K, ref Holguín et al. 52
  solubility (mole fraction): 7.61 × 10^–6 mole fraction

## CC(O)C(=O)O.NCCO (centres unmarked) [MEAL, 2-Hydroxyethylammonium lactate]
HT29 cell line [6]
  cytotoxic effect category: moderate
HT29 cell line [1]
  IC50: 79.23 ± 0.001 µg/mL

## CC(=O)O.NCCO [MEAA, 2-Hydroxyethylammonium acetate]
HT29 cell line [6]
  cytotoxic effect category: moderate
HT29 cell line [1]
  IC50: 26.40 ± 0.006 µg/mL
